{"source": "patent US5759768A", "about": "“Assays for factors affecting circularization of DNA, assays for factors affecting DNA integration, factors, and uses thereof” (priority 1995, dated 1998)", "tested_on": "viral DNA (circularization versus integration into .phi.X174 target DNA)", "experiment": "Circularization versus integration (competition) in cytoplasmic extracts from infected cells", "format": "biochemical, HIV-1", "description": "Circularization of the linear viral DNA present in cytoplasmic extracts was competitive with integration into heterologous DNA targets (FIG. 28). In FIG. 28, cytoplasmic extracts from infected cells were incubated at 37° C. as follows: Lane 1; incubation with 10 μg/ml .phi.X174 DNA for 45 minutes, lane 2, incubation with 1 mM ATP for 45 minutes; lane 3, incubation with […] .phi.X174 DNA and 1 mM ATP for 45 minutes; lane 4, incubation with 10 μg/ml .phi.X174 DNA for 45 minutes, followed by incubation with 1 mM ATP for 45 minutes; lane 5, incubation with 1 mM ATP for 45 minutes, followed by incubation with 10 μg/ml .phi.X174 DNA for 45 minutes; lane 6, incubation with nothing added for 45 minutes, followed by incubation with 10 μg/ml .phi.X174 DNA for 45 minutes. In FIG. 29, lanes 1-6, cytoplasmic extracts from infected cells were incubated at 37° C. for 45 minutes in the presence of 1 mM ATP and .phi.X174 DNA at a concentration of 0 μg/ml (lane 1), 0.3 μg/ml (lane 2), 0.8 μg/ml (lane 3), 1.6 μg/ml (lane 4), 3.2 μg/ml (lane 5), or 6.4 μg/ml (lane 6). Lane 7, extract incubated with 6.4 μg/ml .phi.X174 DNA for 45 minutes in the absence of added ATP. In FIG. 30, cytoplasmic extracts from infected cells were incubated at 37° C. for 60 minutes with nothing added (lane 1), with 6.4 μg/ml .phi.X174 DNA and 1 mM ATPγS (lane 2), or with 1 mM […] (lane 3). […]", "note": "“Also recorded” adds a separate entry of the source."}
{"smiles": "Nc1ncnc2c1ncn2[C@@H]1O[C@H](COP(=O)(O)OP(=O)(O)OP(=O)(O)O)[C@@H](O)[C@H]1O", "note": "[ATP, adenosine triphosphate]", "values": [{"measurement": "circular or integrated product", "setting": "ATP (1 mM) and target DNA together, versus either alone, 45 min", "value": "the amount of circular or integrated product produced was reduced"}, {"measurement": "integration of viral DNA into target DNA", "setting": "preincubation with 1 mM ATP for 45 min prior to target DNA", "value": "integration of viral DNA into target DNA was prevented; also recorded: unable to integrate during a subsequent incubation with target DNA"}]}
